Measured values reported in PMC11345330, “Structural, Biochemical, and Phylogenetic Analysis of Bacterial and Fungal Carbohydrate Esterase Family 15 Glucuronoyl Esterases in the Rumen” (The Protein Journal, 2024).

Biological target: T1, FsCE15 (Fibrobacter succinogenes, UniProt C9RKY6)
T1 construct: gene FSU_2898; codon-optimised synthetic gene, His6 tag (C-terminal for crystals)
Assay: continuous coupled uronic acid assay (Megazyme K-Uronic)
Format: biochemical
Details: pH 7.0, 3-component buffer, 2 mM substrate

T1 sequence (C9RKY6 entry or part of it): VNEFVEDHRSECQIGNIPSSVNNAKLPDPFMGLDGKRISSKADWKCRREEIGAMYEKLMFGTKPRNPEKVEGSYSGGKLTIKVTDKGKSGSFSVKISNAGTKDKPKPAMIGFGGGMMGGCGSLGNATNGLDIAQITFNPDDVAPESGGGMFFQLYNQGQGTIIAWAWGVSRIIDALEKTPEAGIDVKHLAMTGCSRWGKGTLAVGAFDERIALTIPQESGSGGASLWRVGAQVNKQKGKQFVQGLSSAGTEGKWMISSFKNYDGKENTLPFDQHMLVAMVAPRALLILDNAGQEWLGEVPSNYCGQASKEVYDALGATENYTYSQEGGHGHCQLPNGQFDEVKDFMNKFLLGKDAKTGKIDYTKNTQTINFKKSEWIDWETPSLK

continuous coupled uronic acid assay (Megazyme K-Uronic): All of the enzymes cleaved AllylGlcA
Compound: C=CCOC(=O)[C@H]1OC(O)[C@H](O)[C@@H](O)[C@@H]1O (stereo partly drawn) [Allyl D-glucuronate]
